Laboratory results as given in ChEMBL document CHEMBL3046239, “Lethal and Antifeedant Substance from Rhizome of Alpinia galanga SW. (Zingiberaceae)” (1998).

What was measured:
Type in all cases: functional
Plutella xylostella [1] = assay: Antifeedant effect in Plutella xylostella (diamondback moth) in compound treated fresh cabbage leaves assessed as feeding reduction at 66.4 ug/cm'2 by no-choice leaf disk method
Callosobruchus chinensis [2] = assay: Lethal effect on Callosobruchus chinensis assessed as mortality measured per insect after 24 hr treatment by topical application method
Plutella xylostella [3] = assay: Lethal effect on Plutella xylostella (diamondback moth) in fresh cabbage leaves assessed as mortality measured per insect after 48 hr treatment by topical application method
Callosobruchus chinensis [4] = assay: Lethal effect on Callosobruchus chinensis assessed as mortality at 8 ug/insect measured 24 hr after treatment by topical application method
Plutella xylostella [5] = assay: Lethal effect on Plutella xylostella (diamondback moth) in fresh cabbage leaves assessed as mortality at 8 to 10 ug/insect measured 48 hr after treatment by topical application method
Plutella xylostella [6] = assay: Antifeedant effect in Plutella xylostella (diamondback moth) in compound treated fresh cabbage leaves assessed as feeding reduction at 106.2 ug/cm'2 by no-choice leaf disk method
Plutella xylostella [7] = assay: Lethal effect on Plutella xylostella (diamondback moth) in fresh cabbage leaves assessed as mortality at 10 ug/insect measured 24 hr after treatment by topical application method

In the case of `C=C[C@H](OC(C)=O)c1ccc(OC(C)=O)cc1` [1'-ACETOXYCHAVICOL ACETATE], the AFI (Plutella xylostella [1]) is reported as 88.5%, the LD50 (Callosobruchus chinensis [2]) is reported as 3 µg and the LD50 (Plutella xylostella [3]) is reported as 4.5 µg. It also gave a mortality (Callosobruchus chinensis [4]) of 95%, a mortality (Plutella xylostella [5]) of 100% and an AFI (Plutella xylostella [6]) of 98.8%. The mortality (Plutella xylostella [7]) was 83.3%.
